The values that follow come from the METLIN SMRT retention time set (Domingo-Almenara et al. 2019).

The data set can be described thus: gradient 5% acetonitrile 3 min, to 50% in 2 min, to 85% in 15 min, held 3 min, 100 µL/min. The following applies: column: Zorbax Extend-C18 2.1 x 50 mm; eluents: water / acetonitrile, 0.1% formic acid. An outline of the steps:
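Retention times of pure standards were taken from adduct peaks that were selected by computer and manually inspected. Over 3 months, mixtures of ~100 molecules were run by HPLC–quadrupole time-of-flight mass spectrometry in positive and negative ionization mode. The Zorbax Extend-C18 column (2.1 × 50 mm, 1.8 μm) ran at 100 μL/min in water and acetonitrile, each containing 0.1% formic acid, with 40 μL dead volume and 900 μL dwell volume.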
Regarding `COc1cc(-c2c(NC(=O)c3ccco3)sc3ccccc3c2=O)cc(OC)c1OC`, the RP-LC retention time turned out to be 828 s.
In the case of `Cc1noc(-c2cc(=O)n(CC(=O)Nc3ccc(Cl)cc3)c3ccccc23)n1` it was 915 s; in that of `CCCS(=O)(=O)N1CC(=O)N(c2ccc(F)cc2F)C(C)(C(=O)NC2CCCCCC2)C1` (stereo not given), 979 s; in that of `Cn1cccc1CN1CCCC(COc2ccccc2C(=O)N2CCCC2)C1` (stereo not given), 644 s.
Take `CN(C)c1ccc(CNC(=O)c2ccc3ncnc(N4CCCC4)c3c2)cc1`: the RP-LC retention time came out at 556 s.
For `Cc1ccc(NC(=O)c2cc3c(=O)n(CC(C)C)ccc3n2C)cc1Cl` the value was 1020 s; for `COCCCNC(=O)N1CCCN(C2=NS(=O)(=O)C(c3ccccc3)=C2C)CC1`, 679 s; for `O=c1n(Cc2ccc(F)cc2Cl)nc2c(S(=O)(=O)N3CCCC3)cccn12`, 1020 s.
The compound `COc1ccc(NC(=O)CCc2c(C)nn(-c3cc(N4CCCC4)ncn3)c2C)c(OC)c1` came in with an RP-LC retention time of 801 s.
The compound `CCc1ccc(CNC(=O)c2cn3ccccc3n2)cc1` had an RP-LC retention time of 757 s.
In the case of `CCC(C)(C)NS(=O)(=O)c1cc(-c2nc(C)cs2)n(CC(=O)N2CCCC2)c1` it was 967 s; in that of `CS(=O)(=O)N1CCC(C(=O)NCc2ccccc2)Oc2ccccc21` (stereo not given), 807 s.
For `CC(=O)N1c2ccc(S(=O)(=O)N3CCCCC3)cc2CC1C(=O)N(C)Cc1ccccc1` (stereo not given) the value was 864 s.
The compound `COCC1CN(S(=O)(=O)Cc2ccc(C)c(C)c2)CC12CCNCC2` (stereo not given) yielded an RP-LC retention time of 654 s.
`COc1cc2c(cc1OC)C(C(=O)Nc1ccc3c(c1)OCCO3)C(c1cccs1)N(C)C2=O` (stereo not given) showed an RP-LC retention time of 783 s.
For `Nc1cc(C2CCN(C(=O)c3cccc(Br)c3)CC2)no1` the value was 709 s; for `Cc1ccsc1C(=O)NCCC1CCN(C(=O)Nc2cc(F)cc(F)c2)CC1`, 915 s; for `O=c1ccn(-c2ccc(F)cc2)nc1-c1nc(-c2ccccc2F)no1`, 838 s.
In the case of `O=C(NCC1CCCO1)c1cc(S(=O)(=O)N2CCCCCC2)ccc1Cl` (stereo not given) it was 842 s.
Take `CCN1C(=O)COc2ccc(-c3noc(-c4ccc(Cl)cc4)n3)cc21`: the RP-LC retention time amounted to 1220 s.
In turn, `Cc1ccc2nc(-c3ccccc3F)c(Nc3ccc(Cl)cc3)n2c1` came in with an RP-LC retention time of 754 s.
For `CC(Oc1ccccc1)C(=O)NCc1nnnn1-c1ccc(Cl)cc1` (stereo not given) the value was 824 s.
In the case of `CCOC(=O)C1CCN([C@H]2CS(=O)(=O)C[C@@H]2S(=O)(=O)c2ccccc2)CC1` it was 826 s; in that of `CCCN(C(=O)CC)c1nc(-c2ccc(Br)cc2)cs1`, 1410 s; in that of `CCc1ccccc1NC(=O)N1CCCC1c1nc(-c2ccc(F)cc2F)no1` (stereo not given), 987 s.
Turning to `CCc1cccc(NC(=O)C2CCN(S(=O)(=O)c3ccc4c(c3)CCCC(=O)N4)CC2)c1`, the RP-LC retention time was 735 s.
In the case of `COCC(=O)N(C1CCOCC1)C1CCN(S(=O)(=O)c2ccccc2F)CC1` it was 740 s; in that of `Cc1ccc(CNC(=O)CCCN2C(=O)CCn3nc(-c4cccn4C)cc32)cc1`, 795 s; in that of `Cc1n[nH]c(C)c1Sc1ccccc1[N+](=O)[O-]`, 739 s.
The compound `COc1ccc(Cn2nc3ccc(S(=O)(=O)N4CCCCCC4)cn3c2=O)cc1` yielded an RP-LC retention time of 935 s.
For `COc1ccc(N2CC(c3nc(-c4ccccc4F)no3)CC2=O)cc1` (stereo not given), the RP-LC retention time is 865 s.
Compound `CCOC(=O)N1CCN(C(=O)c2cn(C)nc2C)CC1` yielded an RP-LC retention time of 572 s.
For `COc1ccc(CNC(=O)c2cn3cc(Cl)ccc3n2)cc1` the value was 811 s; for `Cc1nc(-c2csc(S(=O)(=O)N3CCC(C(=O)Nc4ccc(F)c(Cl)c4)CC3)c2)no1`, 1010 s; for `CCCN(C)C(=O)c1ccc(-n2cc(CNC(=O)C3CCC3)cn2)cc1`, 695 s.
In the case of `Cc1c(Cl)cccc1Nc1c(-c2cccc(O)c2)nc2cnccn12` it was 813 s.
With `COc1ccc2[nH]cc(CCNC(=O)Cn3nc(C)c4nn(-c5ccccc5)c(C)c4c3=O)c2c1`, the RP-LC retention time is 817 s.
In the case of `CCCS(=O)(=O)c1nc2ccc(NS(=O)(=O)c3ccc(F)cc3F)cc2s1` it was 934 s.
`O=C(C1CCN(S(=O)(=O)c2ccc3[nH]c4c(c3c2)CCCCC4)CC1)N1CCCC1`: the RP-LC retention time stood at 906 s.
As for `O=C1NC(C(=O)NCCCn2cccn2)Cn2cccc21` (stereo not given), the RP-LC retention time stood at 585 s.
In the case of `CC(C)Cn1cc(S(=O)(=O)N2CCSCC2)c2cccnc21` it was 969 s.
For `CCc1ccc(C(C)NC(=O)C2CCN(c3cncnc3N3CCOCC3)CC2)cc1` (stereo not given) the value was 697 s; for `CC1=C(c2ccccc2)S(=O)(=O)N=C1N1CCCN(C(=O)C2CCOC2)CC1` (stereo not given), 675 s; for `COc1ccc(N2CCN(C(=O)CC3CCN(C(=O)c4[nH]c(C)cc4C)CC3)CC2)cc1`, 739 s.
For `COc1ccccc1-c1nn2c(-c3cc(C(C)C)[nH]n3)nnc2s1` the value was 872 s; for `Cc1ccc2c(c1)N(S(C)(=O)=O)CCC(C(=O)Nc1cc(Cl)ccc1C)O2` (stereo not given), 919 s; for `Cc1cccc(CNS(=O)(=O)c2ccc3c(c2)C(=O)N(C)c2ncccc2O3)c1`, 886 s.
Compound `O=C(c1ccco1)N1CCN(C(=O)C2CCCN(c3ncnc4c3nc3n4CCCCC3)C2)CC1` (stereo not given) displayed an RP-LC retention time of 657 s.
Compound `Cn1cc(CCNC(=O)c2ccccc2Br)c2cccnc21` returned an RP-LC retention time of 660 s.
On to `COc1ccc(C(=O)N2C[C@@H]3C[C@H]2C[C@@H]3NS(=O)(=O)c2ccccc2)cc1OC`, for which the RP-LC retention time turned out to be 723 s.
For `CCS(=O)(=O)Nc1ccc2nc(N3CCN(c4ccc(F)cc4)CC3)cc(C(=O)O)c2c1`, the RP-LC retention time stood at 653 s.
For `COc1ccc(NC(=O)NC2CCN(c3ccc(F)cc3)C2=O)c(OC)c1` (stereo not given) the value was 716 s; for `Cn1cccc1C(=O)NC(C)(C)c1nc2c(c(C(N)=O)n1)OCCO2`, 608 s; for `O=C1NCCOCCN(C(=O)Nc2ccccc2)[C@@H]2CCCC[C@H]12`, 741 s.
For `O=C(c1cc(-c2ccncc2)n[nH]1)N1CCCC(C(=O)N2CC=C(c3ccccc3)CC2)C1` (stereo not given) the value was 648 s; for `CCc1nc2ccccc2c(=O)n1Cc1noc(/C=C/c2ccc(OC)cc2)n1`, 1000 s; for `Cc1ccc(-n2nnnc2CNS(=O)(=O)c2ccc(F)cc2F)cc1`, 792 s.
In the case of `CCc1noc(NC(C)=O)c1-c1ccc(OC)c(S(=O)(=O)NC2CCCCCCC2)c1` it was 939 s; in that of `Brc1ccc(-c2noc(CSc3nccn3-c3ccccc3)n2)cc1`, 1030 s.
With `COC(=O)CNC(=O)Nc1ccc2nc(-c3ccc(F)cc3)cc(OC)c2c1`, the RP-LC retention time stood at 624 s.
In the case of `N#Cc1cccc(C(=O)N2CCCC2c2nc(-c3cccc(C(F)(F)F)c3)no2)c1` (stereo not given) it was 1050 s; in that of `O=C(Cc1ccccc1Br)N1CCN(c2cc(-c3ccccc3)[nH]n2)CC1`, 853 s.
Regarding `CN(C)CCNC(=O)Cn1ncn2nc(-c3ccccc3)cc2c1=O`, the RP-LC retention time was 620 s.
For `Cc1ccc(Nc2cc(-n3ccnc3)ncn2)cc1C` the value was 671 s; for `Cc1ccc(-n2cccc2CC(=O)NCc2ccc(N3CCOCC3)cc2)cc1`, 877 s; for `O=S(=O)(c1cccnc1)N1CC(F)(F)C[C@H]1c1nc(C2CC2)no1`, 815 s.
In the case of `Cc1ccc2c(c1)N(S(C)(=O)=O)CCC(C(=O)Nc1ccccc1F)O2` (stereo not given) it was 918 s; in that of `O=C(Nc1cccc(Cl)c1)N1CCN(c2ncc(C(F)(F)F)cc2Cl)CC1`, 1190 s; in that of `Cc1ccn2c(NC(=O)c3cccc(C(F)(F)F)c3)c(-c3ccc(F)cc3)nc2c1`, 752 s.
For `COc1cccc(N2CCN(C(=O)c3cc(C4CC4)[nH]n3)CC2)c1` the value was 813 s.
For the compound `COc1ccc(-c2nc(Cc3noc(-c4ccccc4F)n3)c(C)o2)cc1`, the RP-LC retention time is 1080 s.
Take `CCN1CCCCc2cc(C(=O)NCC(N)=O)sc21`: the RP-LC retention time turned out to be 679 s.
For `COc1ccc(-n2c(=O)n(C)c(=O)c3cc(C(=O)NCc4ccncc4)cnc32)cc1` the value was 596 s.
For `CCNS(=O)(=O)c1cc(-c2c(CC)noc2NC(C)=O)ccc1C` the value was 698 s; for `COCCCNC(=O)C1CCCN(c2cnc3nccnc3c2)C1` (stereo not given), 602 s; for `O=C(NC1CCCC1)c1cccnc1N1CCOCC1`, 637 s.
In the case of `CCC(=O)N1CCc2cc(C)c(S(=O)(=O)NC3CC3)cc21` it was 767 s; in that of `COC(=O)CNC(=O)N1Cc2ccccc2OC2(CCN(C(C)C)CC2)C1`, 595 s.
Compound `O=C(NCCn1cnc2cc(C(=O)N3CCCC3)ccc21)Nc1ccc(Br)cc1F` showed an RP-LC retention time of 639 s.
`Fc1ccc(-c2nnc(Cc3nc(-c4cccc(Cl)c4)no3)o2)cc1` yielded an RP-LC retention time of 1070 s.
